Results on four molecules are retold here after publication PMC3974799 (PLoS ONE, 2014).

pIC50: −log10 of the molar value.

For experiment [1], the target named is T1, cytochrome bc1 complex (Btbc1), cyt b subunit (Bos taurus, UniProt P00157).
T1 construct: gene MT-CYB; purified 11-subunit mitochondrial bc1 complex from beef heart; with cyt c1, iron-sulfur protein (bc1 complex)
The experiment is described as follows: cyt c reduction assay with purified bc1. It is filed as biochemical.

Experiment [2] concerns the target T1, cytochrome bc1 complex (Btbc1), cyt b subunit. The experiment is described as follows: Lineweaver-Burk kinetics at […]; difference spectra; single turnover. Type of experiment: biochemical.
For experiment [3] the target is unchanged. Briefly: cyt c reduction assay with purified bc1; also difference spectra and Lineweaver-Burk kinetics. It is filed as biochemical.
Experiment [4] has as its system T2, Complex III (cyt bc1 complex), cyt b subunit.
T2 construct: light mitochondrial fraction; with cyt c1, iron-sulfur protein (bc1 complex)
Briefly: cyt c reduction with decylubiquinol in isolated mitochondria, […] inhibition at […]. Type of experiment: cell-based, Phytophthora capsici. The following applies: 4 µM.

Experiment [5] concerns the target T3, cytochrome bc1 complex (Rsbc1), cyt b subunit (Cereibacter sphaeroides, UniProt Q02761).
T3 construct: gene petB; purified hexahistidine-tagged 4-subunit bc1 complex; with cyt c1, iron-sulfur protein (bc1 complex)
T3 sequence (Q02761 2-445): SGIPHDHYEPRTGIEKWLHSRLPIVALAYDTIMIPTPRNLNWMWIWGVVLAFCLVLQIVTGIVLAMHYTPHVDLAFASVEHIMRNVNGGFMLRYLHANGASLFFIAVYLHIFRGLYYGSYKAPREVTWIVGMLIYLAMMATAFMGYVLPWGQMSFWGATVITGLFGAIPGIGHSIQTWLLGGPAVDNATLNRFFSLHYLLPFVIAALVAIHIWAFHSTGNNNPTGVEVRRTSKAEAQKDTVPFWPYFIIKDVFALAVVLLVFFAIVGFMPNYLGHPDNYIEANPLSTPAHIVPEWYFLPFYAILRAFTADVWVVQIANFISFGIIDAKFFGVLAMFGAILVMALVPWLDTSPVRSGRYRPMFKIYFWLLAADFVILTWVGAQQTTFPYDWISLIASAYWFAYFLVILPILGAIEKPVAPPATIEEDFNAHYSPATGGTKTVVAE
Briefly: cyt c reduction assay with purified bc1; Lineweaver-Burk kinetics. It is filed as biochemical.

T1 sequence (P00157 whole entry): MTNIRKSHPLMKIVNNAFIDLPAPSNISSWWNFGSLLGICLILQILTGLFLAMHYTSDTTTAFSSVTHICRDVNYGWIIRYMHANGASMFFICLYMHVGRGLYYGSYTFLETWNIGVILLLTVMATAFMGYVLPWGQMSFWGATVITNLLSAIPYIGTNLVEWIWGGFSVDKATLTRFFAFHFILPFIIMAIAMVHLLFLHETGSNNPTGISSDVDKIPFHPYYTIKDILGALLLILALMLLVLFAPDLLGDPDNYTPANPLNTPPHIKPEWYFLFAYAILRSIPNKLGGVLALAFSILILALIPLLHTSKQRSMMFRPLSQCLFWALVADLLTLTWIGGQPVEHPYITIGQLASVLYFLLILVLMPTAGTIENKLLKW
T1 sequence (P13272 79-274 partner): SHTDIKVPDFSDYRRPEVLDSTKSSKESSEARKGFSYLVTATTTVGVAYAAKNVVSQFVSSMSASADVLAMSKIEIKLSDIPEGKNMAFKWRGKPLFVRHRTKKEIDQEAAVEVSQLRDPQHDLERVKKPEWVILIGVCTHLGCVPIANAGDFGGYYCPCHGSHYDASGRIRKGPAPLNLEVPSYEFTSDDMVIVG
T1 sequence (P00125 85-325 partner): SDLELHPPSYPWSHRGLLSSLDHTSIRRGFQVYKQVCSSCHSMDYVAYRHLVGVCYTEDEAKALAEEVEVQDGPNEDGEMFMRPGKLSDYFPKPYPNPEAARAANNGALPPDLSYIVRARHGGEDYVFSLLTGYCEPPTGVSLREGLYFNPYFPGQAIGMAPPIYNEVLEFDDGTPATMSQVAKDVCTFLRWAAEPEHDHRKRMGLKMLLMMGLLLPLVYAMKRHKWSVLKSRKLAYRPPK

By pIC50 is commonly meant −log10 of the IC50, conventionally taken in molar units. Read a high pIC50 as a low IC50. As for `CO/C=C(/C(=O)OC)c1ccccc1Oc1cc(Oc2ccccc2C#N)ncn1` [azoxystrobin], the pIC50 in experiment [1] is 7.32.
Take `CO/C(=C/C(N)=O)[C@H](C)[C@H](/C=C/c1csc(-c2csc([C@@H](C)/C=C/C=C/C(C)C)n2)n1)OC` [myxothiazol]: the “Lineweaver-Burk kinetics at 30 and 50 nM; difference spectra; single turnover” value in experiment [2] is reported as “myxothiazol is a competitive inhibitor for the substrate quinol but a non-competitive inhibitor for cyt c”.
As to `CC(C)(C)c1ccc(/C(=C/C(=O)N2CCOCC2)c2ccnc(Cl)c2)cc1` [pyrimorph, (Z)-3-[(2-chloropyridine-4-yl)-3-(4-tert-butylphenyl)-acryloyl] morpholine], the pIC50 in experiment [3] was 4.07; in experiment [5], 4.16. For the same molecule, the percent inhibition in experiment [4] was 95.3.
The molecule `C/C=C(C)/C=C/C=C/[C@H](OC)[C@@H](C)[C@@H](OC)[C@@H](C)CCc1oc2c(O)c(OC)cc(OC)c2c(=O)c1C` [stigmatellin] had a negative logarithm of the IC50 (pIC50) in experiment [1] of 8.55.
